From ChEMBL document CHEMBL1141189, “Preparation and biological evaluation of indole, benzimidazole, and thienopyrrole piperazine carboxamides: potent human histamine h(4) antagonists” (J Med Chem, 2005)

Assays:
Histamine H4 receptor [1] = biological target: T1, Histamine H4 receptor (Homo sapiens, UniProt Q9H3N8); test: Antagonistic activity at human histamine H4 receptor in SK-N-MC cells by inhibition of forskolin-stimulated cAMP-mediated reporter gene activity; format: functional, cell-based; settings: for Kb: read-out: pA2 (converted)
Histamine H4 receptor [2] = biological target: T1, Histamine H4 receptor; test: Displacement of [3H]histamine from recombinant human histamine H4 receptor in SK-N-MC cells; format: cell-based
Histamine H3 receptor = Histamine H3 receptor (Homo sapiens, UniProt Q9Y5N1); test: Binding affinity to histamine H3 receptor
Chain of Histamine H3 receptor (Q9Y5N1 whole entry): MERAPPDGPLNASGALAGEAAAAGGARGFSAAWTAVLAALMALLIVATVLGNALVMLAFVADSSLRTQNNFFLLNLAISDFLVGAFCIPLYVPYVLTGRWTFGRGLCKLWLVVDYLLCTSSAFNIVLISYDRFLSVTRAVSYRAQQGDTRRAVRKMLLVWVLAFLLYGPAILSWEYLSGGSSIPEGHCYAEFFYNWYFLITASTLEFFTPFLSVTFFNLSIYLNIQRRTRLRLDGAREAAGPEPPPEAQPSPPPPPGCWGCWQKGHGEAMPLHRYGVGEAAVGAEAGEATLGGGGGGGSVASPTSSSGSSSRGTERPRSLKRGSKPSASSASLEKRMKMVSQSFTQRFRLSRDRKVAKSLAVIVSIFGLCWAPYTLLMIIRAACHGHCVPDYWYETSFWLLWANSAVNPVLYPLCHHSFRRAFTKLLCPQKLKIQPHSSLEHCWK

[3] = In vitro half life in rat liver microsomes; format: ADME, Microsome
[4] = In vitro half life in human liver microsomes; format: ADME, Microsome
[5] = Half life in rat administered with 10 mg/kg, po; format: ADME, organism-based; design: dose 10 mg/kg, route oral; settings: in vivo
[6] = In vitro half life in rat S9 fraction; format: ADME, Liver
Rattus norvegicus [7] = test: Maximum concentration in rat administered with 10 mg/kg, po; format: ADME, organism-based; design: dose 10 mg/kg, route oral; settings: in vivo
[8] = In vitro half life in human S9 fraction; format: ADME, Liver
Rattus norvegicus [9] = test: Area under curve in rat administered with 10 mg/kg, po; format: ADME, organism-based; design: dose 10 mg/kg, route oral; settings: in vivo
[10] = Oral bioavailability in rat administered with 10 mg/kg, po; format: ADME, organism-based; settings: in vivo
[11] = Half life in rat administered with 2 mg/kg, iv; format: ADME, organism-based; design: dose 2 mg/kg, route intravenous; settings: in vivo

Row | Kb (Histamine H4 receptor [1]) | Ki (Histamine H4 receptor [2]) | SMILES | also measured
1 | 20 nM | – | CN1CCN(C(=O)c2cc3cc(F)ccc3[nH]2)CC1 | –
2 | 31.6 nM | – | Cc1cc(C)c2[nH]c(C(=O)N3CCN(C)CC3)cc2c1 | –
3 | – | – | Cc1cccc2cc(C(=O)N3CCN(C)CC3)[nH]c12 | pA2 (Histamine H4 receptor [1]): 7.9
4 | 63.1 nM | 35 nM | CN1CCN(C(=O)c2nc3ccccc3[nH]2)CC1 | –
5 | 10 nM | – | CN1CCN(C(=O)c2cc3cc(Cl)cc(Cl)c3[nH]2)CC1 | –
6 | – | – | O=C(c1cc2ccccc2[nH]1)N1CCNCC1 | Ki (Histamine H3 receptor): 9000 nM
7 | 20 nM | 27 nM | Cc1c(F)ccc2[nH]c(C(=O)N3CCN(C)CC3)cc12 | –
8 | 20 nM | – | CN1CCN(C(=O)c2cc3cc(F)cc(F)c3[nH]2)CC1 | –
9 | 158 nM | – | CN1CCN(C(=O)c2cc3c(Br)cccc3[nH]2)CC1 | –
10 | 126 nM | 23 nM | Cc1cc(Cl)c2nc(C(=O)N3CCN(C)CC3)[nH]c2c1 | –
11 | – | 90 nM | CN1CCN(C(=O)c2cc3sccc3[nH]2)CC1 | –
12 | 7.94 nM | – | CN1CCN(C(=O)c2cc3cccc(N)c3[nH]2)CC1 | –
13 | 79.4 nM | – | CN1CCN(C(=O)c2cc3cccc(Cl)c3[nH]2)CC1 | –
14 | 79.4 nM | 49 nM | CN1CCN(C(=O)c2nc3c(F)c(F)ccc3[nH]2)CC1 | –
15 | – | – | CN1CCN(C(=O)c2cc3cc(Cl)ccc3[nH]2)CC1 [JNJ-7777120] | half-life [3]: 0.075 h; half-life [4]: 0.467 h; half-life [5]: 2.3 h; half-life [6]: 1.07 h; Cmax (Rattus norvegicus [7]): 1800 nM; half-life [8]: 1.67 h; AUC (Rattus norvegicus [9]): 7 uM.h/L; bioavailability [10]: 22%
16 | 20 nM | 26 nM | CN1CCN(C(=O)c2nc3cc(Cl)ccc3[nH]2)CC1 | half-life [3]: 0.2 h; half-life [4]: 1.67 h; half-life [5]: 1 h; Ki (Histamine H3 receptor): 14100 nM; half-life [6]: 1.47 h; Cmax (Rattus norvegicus [7]): 1800 nM; half-life [8]: 1.67 h; AUC (Rattus norvegicus [9]): 2.1 uM.h/L; bioavailability [10]: 27%
17 | – | 244 nM | CN1CCN(C(=O)c2nc3c(N)cccc3[nH]2)CC1 | –

Row | Kb (Histamine H4 receptor [1]) | Ki (Histamine H4 receptor [2]) | SMILES | also measured
18 | 20 nM | – | Cc1c(Cl)sc2cc(C(=O)N3CCN(C)CC3)[nH]c12 | –
19 | 31.6 nM | – | Cc1csc2cc(C(=O)N3CCN(C)CC3)[nH]c12 | –
20 | – | 90 nM | CN1CCN(C(=O)c2cc3ccsc3[nH]2)CC1 | –
21 | – | 136 nM | CN1CCN(C(=O)c2nc3cc(Cl)cc(Cl)c3[nH]2)CC1 | –
22 | – | 427 nM | CN1CCN(C(=O)c2nc3cc(C(F)(F)F)ccc3[nH]2)CC1 | –
23 | 50.1 nM | – | CN1CCN(C(=O)c2cc3sc(Cl)cc3[nH]2)CC1 | –
24 | 25.1 nM | 30 nM | Cc1cccc2[nH]c(C(=O)N3CCN(C)CC3)nc12 | –
25 | 6.31 nM | – | CN1CCN(C(=O)c2cc3c(Cl)c(Cl)ccc3[nH]2)CC1 | –
26 | 20 nM | – | Cc1ccc2[nH]c(C(=O)N3CCN(C)CC3)cc2c1 | –
27 | 12.6 nM | – | CN1CCN(C(=O)c2cc3cc(Cl)sc3[nH]2)CC1 | half-life [4]: 0.883 h; half-life [6]: 0.783 h; Cmax (Rattus norvegicus [7]): < 100 nM; half-life [11]: 6 min
28 | 15.8 nM | – | CN1CCN(C(=O)c2cc3cc(Br)ccc3[nH]2)CC1 | –
29 | 79.4 nM | – | CN1CCN(C(=O)c2cc3cc(O)ccc3[nH]2)CC1 | –
30 | 50.1 nM | 19 nM | CN1CCN(C(=O)c2nc3cc(F)ccc3[nH]2)CC1 | –
31 | 126 nM | – | CN1CCN(C(=O)c2cc3cccc(Br)c3[nH]2)CC1 | –
32 | 50.1 nM | 33 nM | Cc1cc(Cl)c2[nH]c(C(=O)N3CCN(C)CC3)cc2c1 | –
33 | – | 412 nM | CN1CCN(C(=O)c2cc3cc(C(F)(F)F)ccc3[nH]2)CC1 | –
34 | 15.8 nM | 7 nM | Cc1c(F)ccc2[nH]c(C(=O)N3CCN(C)CC3)nc12 | –
